Assay results from publication PMC11606603, “The membrane domains of mammalian adenylyl cyclases are lipid receptors” (eLife, 2024).
Several values for one entry are separate records, joined by “and”; a condition that tells them apart may be missing. Equal entries are not always repeated.

Tests used:
Type in all cases: biochemical
[1] = biological target: T1, mAC9 (Homo sapiens, UniProt O60503); assay: AC assay, Gsα-stimulated mAC9 in membranes from transfected HEK293 cells; details: 300 nM Gsα, single experiments
T1 construct: Human mAC genes were from GenScript and fitted with a C-terminal FLAG-tag; FLAG (C); made in house; host or cells: HEK293, permanently transfected; membrane preparation
Procedure: (§1) hAC sequences were from NCBI were: ADCY1: NM_021116.3; ADCY2: NM_020546.2; ADCY3: NM_004036.4; ADCY4: NM_001198568.2; ADCY5: NM_183357.2; ADCY6: NM_015270.4; ADCY7: NM_001114.4; ADCY8: NM_001115.2; ADCY9: NM_001116.3. Human mAC genes were from GenScript and fitted with a C-terminal FLAG-tag. […] The gene was synthesized by GenScript. HEK293 cells were maintained in Dulbeccos Modified Eagle Medium (DMEM) with 10% fetal bovine serum at 37°C and 5% CO2. Transfection with AC plasmids was with PolyJet (SignaGen, Frederick, MD, USA). Permanent cell lines were generated by selection for 7 days with 600 µg/ml G418 and maintained with 300 µg/ml For membrane preparation, cells were tyrpsinized, collected by centrifugation (3000 × g, 5 min) and lysed and homogenized in 20 mM HEPES, pH 7.5, 1 mM Ethylenediaminetetraacetic acid (EDTA), 2 mM MgCl2, 1 mM Dithiothreitol (DTT), one tablet of cOmplete, EDTA-free (per 50 ml) and 250 mM sucrose by 20 strokes in a potter homogenizer on ice. Debris was removed (5 min at 1000 × g, 0°C), membranes were collected at 100,000 × g, 60 min at 0°C, suspended and stored at −80°C in 20 mM MOPS, pH 7.5, 0.5 mM EDTA, 2 mM MgCl2. […] Three cerebral cortices were dissected and homogenized in 4.5 ml cold 48 mM Tris–HCl, pH 7.4, 12 mM MgC1_2, and 0.1 mM Ethylene glycol-bis(β-aminoethyl ether)-N,N,N′,N′-tetraacetic acid (EGTA) with a Polytron hand disperser (Kinematica AG, Switzerland). […] The pellet was washed once with 5 ml 1 mM KHCO3. The final suspension in 2 ml 1 mM KHCO3 was stored in aliquots at −80°C.
(§2) In a volume of 10 μl, AC activities were measured using 1 mM ATP, 2 mM MgCl2, 3 mM creatine phosphate, 60 μg/ml creatine kinase, and 50 mM MOPS pH 7.5. The cAMP assay kit from Cisbio (Codolet, France) was used for detection according to the supplier’s instructions. For each assay, a cAMP standard curve was established. EC50 and IC50 values were calculated by GraphPad Prism version 8.4.3 for Windows, GraphPad Software, San Diego, CA, USA, https://www.graphpad.com .

[2] = biological target: T2, mAC7 (Homo sapiens, UniProt P51828); assay: AC assay, Gsα-stimulated mAC7 in membranes from transfected HEK293 cells; details: Figure 5-figure supplement 2 left, 20 µM
T2 construct: Human mAC genes were from GenScript and fitted with a C-terminal FLAG-tag; FLAG (C); made in house; host or cells: HEK293, permanently transfected; membrane preparation
Procedure: as §1, §2

[3] = biological target: T3, mAC4 (Homo sapiens, UniProt Q8NFM4); assay: AC assay, Gsα-stimulated mAC4 in membranes from transfected HEK293 cells
T3 construct: Human mAC genes were from GenScript and fitted with a C-terminal FLAG-tag; FLAG (C); made in house; host or cells: HEK293, permanently transfected; membrane preparation
T3 sequence (Q8NFM4 1-1077): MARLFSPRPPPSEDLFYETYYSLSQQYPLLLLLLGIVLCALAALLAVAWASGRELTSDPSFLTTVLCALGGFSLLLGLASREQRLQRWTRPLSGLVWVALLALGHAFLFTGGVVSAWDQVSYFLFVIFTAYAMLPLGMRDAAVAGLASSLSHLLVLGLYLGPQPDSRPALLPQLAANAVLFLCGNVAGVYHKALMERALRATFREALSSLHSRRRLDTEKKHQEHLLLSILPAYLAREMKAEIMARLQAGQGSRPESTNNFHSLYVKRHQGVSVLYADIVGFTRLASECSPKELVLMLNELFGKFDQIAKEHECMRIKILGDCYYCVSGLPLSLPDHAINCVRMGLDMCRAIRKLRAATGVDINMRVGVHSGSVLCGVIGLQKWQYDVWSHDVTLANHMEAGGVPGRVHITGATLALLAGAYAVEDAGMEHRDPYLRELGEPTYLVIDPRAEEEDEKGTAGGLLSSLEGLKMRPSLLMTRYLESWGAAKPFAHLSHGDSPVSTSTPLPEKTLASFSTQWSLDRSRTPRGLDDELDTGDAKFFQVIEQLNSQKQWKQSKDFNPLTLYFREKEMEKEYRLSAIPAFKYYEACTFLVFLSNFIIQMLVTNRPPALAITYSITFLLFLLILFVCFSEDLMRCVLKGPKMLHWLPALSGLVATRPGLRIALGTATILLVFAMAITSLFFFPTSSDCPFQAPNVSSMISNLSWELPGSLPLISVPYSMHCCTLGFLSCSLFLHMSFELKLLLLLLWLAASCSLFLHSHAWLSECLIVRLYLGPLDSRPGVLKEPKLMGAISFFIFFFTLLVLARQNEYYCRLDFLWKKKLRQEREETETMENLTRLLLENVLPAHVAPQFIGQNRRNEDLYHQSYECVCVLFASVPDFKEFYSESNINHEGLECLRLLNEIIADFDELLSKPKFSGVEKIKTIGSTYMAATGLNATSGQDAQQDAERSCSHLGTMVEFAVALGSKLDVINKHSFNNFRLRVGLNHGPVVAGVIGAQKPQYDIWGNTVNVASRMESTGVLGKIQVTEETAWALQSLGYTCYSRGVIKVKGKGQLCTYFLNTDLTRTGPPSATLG
Procedure: as §1, §2

[4] = biological target: T4, mAC3 (Homo sapiens, UniProt O60266); assay: AC assay, Gsα-stimulated mAC3 in membranes from transfected HEK293 cells; details: for Effect of lipid on 300 nM Gsα-stimulated mAC3: 20 µM, in words; for mAC3 activity [%] (100% = 300nM Gsα stimulation): fatty acid 20 µM, individual experiments
T4 construct: Human mAC genes were from GenScript and fitted with a C-terminal FLAG-tag; FLAG (C); made in house; host or cells: HEK293, permanently transfected; membrane preparation
Procedure: as §1, §2

[5] = biological target: T5, mAC5 (Homo sapiens, UniProt O95622); assay: AC assay, Gsα-stimulated mAC5 in membranes from transfected HEK293 cells; details: 20µM fatty acid concentration
T5 construct: Human mAC genes were from GenScript and fitted with a C-terminal FLAG-tag; FLAG (C); made in house; host or cells: HEK293, permanently transfected; membrane preparation
Procedure: as §1, §2

[6] = biological target: T6, mAC2 (Homo sapiens, UniProt Q08462); assay: AC assay, Gsα-stimulated mAC2 in membranes from transfected HEK293 cells; details: Figure 5-figure supplement 1 left, 20 µM
T6 construct: Human mAC genes were from GenScript and fitted with a C-terminal FLAG-tag; FLAG (C); made in house; host or cells: HEK293, permanently transfected; membrane preparation
Procedure: as §1, §2

[7] = biological target: T7, mAC8 (Homo sapiens, UniProt P40145); assay: AC assay, Gsα-stimulated mAC8 in membranes from transfected HEK293 cells; details: 20µM fatty acid concentration
T7 construct: Human mAC genes were from GenScript and fitted with a C-terminal FLAG-tag; FLAG (C); made in house; host or cells: HEK293, permanently transfected; membrane preparation
Procedure: as §1, §2

[8] = biological target: T8, mAC1 (Homo sapiens, UniProt Q08828); assay: AC assay, Gsα-stimulated mAC1 in membranes from transfected HEK293 cells
T8 construct: Human mAC genes were from GenScript and fitted with a C-terminal FLAG-tag; FLAG (C); made in house; host or cells: HEK293, permanently transfected; membrane preparation
Procedure: as §1, §2

[9] = biological target: T9, mAC6 (Homo sapiens, UniProt O43306); assay: AC assay, Gsα-stimulated mAC6 in membranes from transfected HEK293 cells; details: 20µM fatty acid concentration
T9 construct: Human mAC genes were from GenScript and fitted with a C-terminal FLAG-tag; FLAG (C); made in house; host or cells: HEK293, permanently transfected; membrane preparation
Procedure: as §1, §2

T6 sequence (Q08462 whole entry): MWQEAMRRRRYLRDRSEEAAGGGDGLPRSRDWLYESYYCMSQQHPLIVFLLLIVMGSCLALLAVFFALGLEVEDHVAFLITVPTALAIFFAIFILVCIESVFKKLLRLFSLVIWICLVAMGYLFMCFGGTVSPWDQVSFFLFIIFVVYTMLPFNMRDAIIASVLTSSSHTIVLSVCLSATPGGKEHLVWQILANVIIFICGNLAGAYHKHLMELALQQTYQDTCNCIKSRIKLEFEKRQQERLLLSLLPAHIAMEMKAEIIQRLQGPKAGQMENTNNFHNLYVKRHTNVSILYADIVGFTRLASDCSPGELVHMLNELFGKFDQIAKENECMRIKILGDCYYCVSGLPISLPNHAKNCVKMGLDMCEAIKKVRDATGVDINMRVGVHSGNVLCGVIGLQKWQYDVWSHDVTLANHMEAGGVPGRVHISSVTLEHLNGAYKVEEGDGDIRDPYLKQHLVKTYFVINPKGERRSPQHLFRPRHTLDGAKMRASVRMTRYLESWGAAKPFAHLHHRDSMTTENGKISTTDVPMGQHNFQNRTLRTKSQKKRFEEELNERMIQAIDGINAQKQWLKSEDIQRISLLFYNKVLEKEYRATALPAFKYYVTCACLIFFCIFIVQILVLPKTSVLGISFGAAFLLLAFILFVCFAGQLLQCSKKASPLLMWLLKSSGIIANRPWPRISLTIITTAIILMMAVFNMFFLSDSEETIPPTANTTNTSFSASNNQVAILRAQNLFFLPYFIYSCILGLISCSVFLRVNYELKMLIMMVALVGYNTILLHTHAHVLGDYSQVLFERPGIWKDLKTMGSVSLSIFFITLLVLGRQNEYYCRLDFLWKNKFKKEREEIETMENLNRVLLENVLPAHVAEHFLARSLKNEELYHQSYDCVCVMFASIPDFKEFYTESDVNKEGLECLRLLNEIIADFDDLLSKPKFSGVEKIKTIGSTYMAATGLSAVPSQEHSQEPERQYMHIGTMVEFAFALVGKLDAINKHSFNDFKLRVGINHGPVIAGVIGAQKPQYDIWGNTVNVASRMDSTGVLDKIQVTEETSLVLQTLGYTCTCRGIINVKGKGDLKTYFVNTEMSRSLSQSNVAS
T6 sequence (P63092 2-394 Q227L partner): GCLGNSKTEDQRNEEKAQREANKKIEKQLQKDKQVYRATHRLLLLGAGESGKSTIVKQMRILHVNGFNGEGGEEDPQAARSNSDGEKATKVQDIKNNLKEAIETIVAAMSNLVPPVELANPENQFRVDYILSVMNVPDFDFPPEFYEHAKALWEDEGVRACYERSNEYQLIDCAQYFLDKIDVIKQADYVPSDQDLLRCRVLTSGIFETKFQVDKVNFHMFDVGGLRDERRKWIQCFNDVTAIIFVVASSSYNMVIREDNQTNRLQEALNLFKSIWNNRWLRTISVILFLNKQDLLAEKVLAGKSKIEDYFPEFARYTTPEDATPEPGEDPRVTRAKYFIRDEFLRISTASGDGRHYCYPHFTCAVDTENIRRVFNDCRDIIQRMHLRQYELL
T4 sequence (O60266 whole entry): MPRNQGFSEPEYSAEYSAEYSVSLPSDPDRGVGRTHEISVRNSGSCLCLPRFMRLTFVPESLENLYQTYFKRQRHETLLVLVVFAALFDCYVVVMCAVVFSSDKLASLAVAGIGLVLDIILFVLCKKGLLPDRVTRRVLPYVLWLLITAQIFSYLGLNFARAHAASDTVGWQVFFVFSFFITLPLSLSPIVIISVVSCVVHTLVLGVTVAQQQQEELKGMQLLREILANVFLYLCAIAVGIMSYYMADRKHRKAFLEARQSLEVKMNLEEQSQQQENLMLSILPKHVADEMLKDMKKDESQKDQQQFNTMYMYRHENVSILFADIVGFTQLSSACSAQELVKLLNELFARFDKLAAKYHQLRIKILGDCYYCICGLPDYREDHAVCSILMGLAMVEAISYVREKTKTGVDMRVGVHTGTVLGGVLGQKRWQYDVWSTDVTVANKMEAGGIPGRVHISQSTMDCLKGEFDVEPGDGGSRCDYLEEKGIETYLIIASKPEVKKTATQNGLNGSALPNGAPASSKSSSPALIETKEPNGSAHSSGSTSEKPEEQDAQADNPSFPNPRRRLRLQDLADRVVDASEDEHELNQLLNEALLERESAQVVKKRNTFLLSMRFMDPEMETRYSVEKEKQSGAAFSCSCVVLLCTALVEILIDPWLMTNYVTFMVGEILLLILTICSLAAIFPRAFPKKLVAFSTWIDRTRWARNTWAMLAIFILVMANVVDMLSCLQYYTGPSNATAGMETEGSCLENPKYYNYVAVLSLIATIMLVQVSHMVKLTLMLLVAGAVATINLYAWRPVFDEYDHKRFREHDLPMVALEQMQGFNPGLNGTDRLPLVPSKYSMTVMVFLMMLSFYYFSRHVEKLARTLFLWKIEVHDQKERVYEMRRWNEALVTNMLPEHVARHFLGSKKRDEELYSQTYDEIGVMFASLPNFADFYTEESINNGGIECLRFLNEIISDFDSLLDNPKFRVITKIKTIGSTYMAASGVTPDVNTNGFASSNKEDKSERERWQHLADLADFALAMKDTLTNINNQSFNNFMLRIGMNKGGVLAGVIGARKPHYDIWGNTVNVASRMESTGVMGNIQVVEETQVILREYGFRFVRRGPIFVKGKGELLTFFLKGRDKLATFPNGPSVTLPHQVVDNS
T4 sequence (P63092 whole entry Q227L partner): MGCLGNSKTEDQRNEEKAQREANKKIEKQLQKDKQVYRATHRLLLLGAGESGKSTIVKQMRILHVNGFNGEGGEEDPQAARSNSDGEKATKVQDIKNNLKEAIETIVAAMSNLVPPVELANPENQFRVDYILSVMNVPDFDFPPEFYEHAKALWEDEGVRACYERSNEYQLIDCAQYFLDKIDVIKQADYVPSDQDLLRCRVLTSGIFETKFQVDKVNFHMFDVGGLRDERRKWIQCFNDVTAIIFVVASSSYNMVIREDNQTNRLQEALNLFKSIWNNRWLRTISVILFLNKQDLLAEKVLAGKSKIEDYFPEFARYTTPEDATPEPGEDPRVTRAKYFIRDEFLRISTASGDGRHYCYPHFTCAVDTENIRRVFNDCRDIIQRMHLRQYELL
T2 sequence (P51828 whole entry): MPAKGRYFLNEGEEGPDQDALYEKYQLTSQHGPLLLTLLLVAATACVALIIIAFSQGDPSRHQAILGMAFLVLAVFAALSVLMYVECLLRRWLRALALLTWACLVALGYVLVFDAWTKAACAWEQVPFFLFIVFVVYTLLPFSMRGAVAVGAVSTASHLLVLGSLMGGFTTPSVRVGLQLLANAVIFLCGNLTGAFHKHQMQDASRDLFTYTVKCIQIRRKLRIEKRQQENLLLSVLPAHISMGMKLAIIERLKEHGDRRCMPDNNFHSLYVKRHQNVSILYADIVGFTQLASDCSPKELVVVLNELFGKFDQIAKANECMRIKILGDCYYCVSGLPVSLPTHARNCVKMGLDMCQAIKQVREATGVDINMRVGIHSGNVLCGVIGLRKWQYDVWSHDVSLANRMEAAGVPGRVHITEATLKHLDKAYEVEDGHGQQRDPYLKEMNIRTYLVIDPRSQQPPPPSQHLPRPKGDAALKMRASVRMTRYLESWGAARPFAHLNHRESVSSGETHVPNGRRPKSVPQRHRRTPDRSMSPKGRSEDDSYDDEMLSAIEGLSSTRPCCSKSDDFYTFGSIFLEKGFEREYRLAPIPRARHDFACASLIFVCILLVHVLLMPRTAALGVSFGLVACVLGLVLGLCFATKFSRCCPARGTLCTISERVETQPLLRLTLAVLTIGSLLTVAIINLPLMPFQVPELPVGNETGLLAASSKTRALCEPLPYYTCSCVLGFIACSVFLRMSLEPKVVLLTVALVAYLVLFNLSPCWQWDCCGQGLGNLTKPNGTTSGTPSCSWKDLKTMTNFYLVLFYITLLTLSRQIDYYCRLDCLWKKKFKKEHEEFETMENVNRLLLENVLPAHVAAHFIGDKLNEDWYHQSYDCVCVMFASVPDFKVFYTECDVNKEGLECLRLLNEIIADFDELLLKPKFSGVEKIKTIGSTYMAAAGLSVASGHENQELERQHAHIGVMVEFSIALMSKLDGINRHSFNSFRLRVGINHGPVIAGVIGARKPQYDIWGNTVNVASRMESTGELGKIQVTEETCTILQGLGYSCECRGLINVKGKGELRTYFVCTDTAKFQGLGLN
T2 sequence (P63092 2-394 Q227L partner): as the sequence (P63092 2-394 Q227L partner) above

Row | SMILES | mAC9 activity (%);(100% = Gsα stimulation) stimulated by 300nM Gsα ([1]; 1 µM fatty acid) | mAC9 activity [%] (100% = 300nM Gsα stimulation); 20µM fatty acid concentration ([1]; 20 µM fatty acid) | mAC7 activity [%] (100% = 300nM Gsα stimulation); 20µM fatty acid concentration [2] | mAC4 activity [%] (100% = 300nM Gsα stimulation); 20µM fatty acid concentration ([3]; 300 nM Gsα, single experiments) | Effect of lipid on 300 nM Gsα-stimulated mAC3 [4] | mAC3 activity [%] (100% = 300nM Gsα stimulation) [4] | mAC5 activity [%] (100% = 300nM Gsα stimulation) [5] | mAC2 activity [%] (100% = 300nM Gsα stimulation); 20µM fatty acid concentration [6] | mAC8 activity [%] (100% = 300nM Gsα stimulation) [7] | mAC1 activity [%] (100% = 300nM Gsα stimulation); 20µM fatty acid concentration ([8]; 300 nM Gsα, single experiments) | mAC6 activity [%] (100% = 300nM Gsα stimulation) [9] | further results
1 | CCCCCCCCCCCCCC(=O)O [Myristic acid, Myristic (tetradecanoic) acid] | 82% and 122% and 127% and 109% and 126% and 137% | 185% and 310% and 168% and 189% and 240% | 94% and 152% and 85% and 110% | 71% and 59% and 97% | no significant effect | 90% and 108% and 224% and 226% | 105% and 80% and 76% | 102% and 121% and 90% and 101% | 119% and 130% and 99% | 91% and 96% and 101% | 98% and 72% and 83% | mAC9 activity (%);(100% = Gsα stimulation) stimulated by 300nM Gsα ([1]; 3 µM fatty acid): 129% and 111% and 136% and 125%; mAC9 activity (%);(100% = Gsα stimulation) stimulated by 300nM Gsα ([1]; 6 µM fatty acid): 104% and 129% and 178% and 179% and 144% and 168%; mAC9 activity (%);(100% = Gsα stimulation) stimulated by 300nM Gsα ([1]; 10 µM fatty acid): 130% and 135% and 224% and 171% and 187% and 200% and 115%; mAC9 activity (%);(100% = Gsα stimulation) stimulated by 300nM Gsα ([1]; 20 µM fatty acid): 168% and 189% and 240% and 185% and 310%
2 | CCCC/C=C\CCCCCCCC(=O)O [Myristoleic acid, Myristoleic ((9Z)-tetradecenoic) acid] | – | 88% and 116% and 130% | 92% and 95% and 67% | 79% and 94% and 104% | – | 82% and 156% and 95% | 79% and 90% and 96% | 106% and 81% and 89% | 62% and 117% and 101% | 90% and 103% and 77% | 92% and 96% | –
3 | CCCCCCCCCCCCCCCCCC [Octadecane] | – | 70% and 95% | 87% and 68% | 71% and 92% | – | 67% and 79% | 82% and 128% | 74% and 87% | 129% and 109% | 96% and 100% | 80% and 141% | –
4 | CCCCCC/C=C\CCCCCCCC(=O)O [Palmitoleic acid, Palmitoleic ((9Z)-hexadecenoic) acid] | 136% and 130% and 125% | – | 91% and 107% and 128% | 58% and 74% and 53% and 64% and 83% | less efficacious | 151% and 133% and 248% and 259% and 116% and 136% and 292% | 99% and 92% and 101% | 82% and 120% and 125% | 116% and 103% and 76% | 56% and 77% and 83% and 82% and 92% | 71% and 89% and 68% | Effect of lipid on 300 nM Gsα-stimulated mAC4 ([3]; 20 µM, in words): somewhat less; IC50 ([3]; attenuation of 300 nM Gsα-stimulated activity, read-out: IC50 for mAC4): 20 µM; activity at 0.1 µM ([3]; read-out: mAC4 activity (%);(100% = Gsα stimulation) stimulated by 300nM Gsα, 0.1 µM, 300 nM Gsα, single experiments (reference point, all 100)): 100%; activity at 25 µM ([3]; read-out: mAC4 activity (%);(100% = Gsα stimulation) stimulated by 300nM Gsα, 25 µM, 300 nM Gsα, single experiments): 49%; activity at 50 µM ([3]; read-out: mAC4 activity (%);(100% = Gsα stimulation) stimulated by 300nM Gsα, 50 µM, 300 nM Gsα, single experiments): 19%; activity at 60 µM ([3]; read-out: mAC4 activity (%);(100% = Gsα stimulation) stimulated by 300nM Gsα, 60 µM, 300 nM Gsα, single experiments): 75%; activity at 100 µM ([3]; read-out: mAC4 activity (%);(100% = Gsα stimulation) stimulated by 300nM Gsα, 100 µM, 300 nM Gsα, single experiments): 44%; IC50 [8]: 49 µM; activity at 1 µM ([8]; 1 µM, 300 nM Gsα, single experiments, read-out: mAC1 activity (%);(100% = Gsα stimulation) stimulated by 300nM Gsα): 84%; activity at 6 µM ([8]; 6 µM, 300 nM Gsα, single experiments, read-out: mAC1 activity (%);(100% = Gsα stimulation) stimulated by 300nM Gsα): 97%; Effect of lipid on 300 nM Gsα-stimulated mAC1 ([8]; 20 µM, in words): somewhat less; activity at 25 µM ([8]; 25 µM, 300 nM Gsα, single experiments, read-out: mAC1 activity (%);(100% = Gsα stimulation) stimulated by 300nM Gsα): 50%; activity at 50 µM ([8]; 50 µM, 300 nM Gsα, single experiments, read-out: mAC1 activity (%);(100% = Gsα stimulation) stimulated by 300nM Gsα): 31%; activity at 0.1 µM ([8]; read-out: mAC1 activity (%);(100% = Gsα stimulation) stimulated by 300nM Gsα, 0.1 µM, 300 nM Gsα, single experiments (reference point, all 100)): 100%
